Measured values reported in ChEMBL document CHEMBL1201862, “PubChem BioAssay data set” (2004).
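Compound exposure: 48 hours, 5 concentrations, 96-well plates. At the GI50, growth is halved.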 Activity calls are given as the source filed them. Cut-off read from the data, not from the text of the source: active = GI50 up to about 1.1 µM and inactive = higher.

Key:
Assay in all cases: inhibition of tumour cell growth, NCI panel, 48 h
[1] = test system: 786-0
[2] = test system: A498
[3] = test system: A549
[4] = test system: ACHN
[5] = test system: CAKI-1
[6] = test system: CCRF-CEM
[7] = test system: COLO 205
[8] = test system: DLD-1
[9] = test system: DMS-114
[10] = test system: DMS-273
[11] = test system: EKVX
[12] = test system: HCC 2998
[13] = test system: HCT-116
[14] = test system: HCT-15
[15] = test system: HL-60
[16] = test system: HOP-18
[17] = test system: HOP-62
[18] = test system: HOP-92
[19] = test system: HT-29
[20] = test system: IGROV-1
[21] = test system: K562
[22] = test system: KM-20L2
[23] = test system: KM12
[24] = test system: LOX IMVI
[25] = test system: LXFL 529
[26] = test system: M14
[27] = test system: M19-MEL
[28] = test system: MOLT-4
[29] = test system: Malme-3M
[30] = test system: NCI-H226
[31] = test system: NCI-H23
[32] = test system: NCI-H460
[33] = test system: NCI-H522
[34] = test system: OVCAR-3
[35] = test system: OVCAR-4
[36] = test system: OVCAR-5
[37] = test system: OVCAR-8
[38] = test system: RPMI-8226
[39] = test system: RXF 393
[40] = test system: RXF 631
[41] = test system: SF-268
[42] = test system: SF-295
[43] = test system: SF-539
[44] = test system: SK-MEL-28
[45] = test system: SK-MEL-2
[46] = test system: SK-MEL-5
[47] = test system: SK-OV-3
[48] = test system: SN12C
[49] = test system: SNB-19
[50] = test system: SNB-75
[51] = test system: SNB-78
[52] = test system: SR
[53] = test system: SW-620
[54] = test system: TK-10
[55] = test system: U-251
[56] = test system: UACC-257
[57] = test system: UACC-62
[58] = test system: UO-31
[59] = test system: XF498

C[n+]1c2ccccc2cc2c(CNC(CCCNC(=N)N)C(=O)O)cccc21 (centres undefined)
GI50 [1]: 750 nM (active) | GI50 [2]: 3510 nM (inactive) | GI50 [3]: 3050 nM (inactive) | GI50 [4]: 594 nM (active) | GI50 [5]: 518 nM (active) | GI50 [6]: 179 nM (active) | GI50 [7]: 248 nM (active) | GI50 [8]: 351 nM (active) | GI50 [9]: 232 nM (active) | GI50 [10]: 1590 nM (inactive) | GI50 [11]: 4660 nM (inactive) | GI50 [12]: 2240 nM (inactive) | GI50 [13]: 301 nM (active) | GI50 [14]: 394 nM | GI50 [15]: 149 nM (active) | GI50 [16]: 2050 nM (inactive) | GI50 [17]: 2700 nM (inactive) | GI50 [18]: 1300 nM (inactive) | GI50 [19]: 303 nM (active) | GI50 [20]: 7400 nM (inactive) | GI50 [21]: 220 nM (active) | GI50 [22]: 641 nM (active) | GI50 [23]: 448 nM (active) | GI50 [24]: 493 nM (active) | GI50 [25]: 733 nM (active) | GI50 [26]: 3310 nM (inactive) | GI50 [27]: 413 nM (active) | GI50 [28]: 208 nM (active) | GI50 [29]: 2050 nM (inactive) | GI50 [30]: 3050 nM (inactive) | GI50 [31]: 3140 nM (inactive) | GI50 [32]: 1900 nM (inactive) | GI50 [33]: 1400 nM (inactive) | GI50 [34]: 2000 nM (inactive) | GI50 [35]: 11400 nM (inactive) | GI50 [36]: 4500 nM (inactive) | GI50 [37]: 1800 nM (inactive) | GI50 [38]: 68.2 nM (active) | GI50 [39]: 45.8 nM (active) | GI50 [40]: 3370 nM (inactive) | GI50 [41]: 244 nM (active) | GI50 [42]: 3170 nM (inactive) | GI50 [43]: 1230 nM (inactive) | GI50 [44]: 1340 nM (inactive) | GI50 [45]: 4030 nM (inactive) | GI50 [46]: 2210 nM (inactive) | GI50 [47]: 1990 nM (inactive) | GI50 [48]: 650 nM (active) | GI50 [49]: 2370 nM (inactive) | GI50 [50]: 5620 nM (inactive) | GI50 [51]: 2310 nM (inactive) | GI50 [52]: 184 nM (active) | GI50 [53]: 378 nM (active) | GI50 [54]: 670 nM (active) | GI50 [55]: 1610 nM (inactive) | GI50 [56]: 638 nM (active) | GI50 [57]: 643 nM (active) | GI50 [58]: 959 nM (active) | GI50 [59]: 2070 nM (inactive)
